Measured values reported in patent US20180263940A1, “TREATMENT OF SKIN CONDITIONS” (priority 2015, published 2018).
“Also recorded” adds a separate entry of the source.

What was measured:
[1] = test system: naturally parakeratotic tail scale skin; experiment: Ex vivo mouse tail scale assay; format: cell-based; details: 4 days ex vivo
Experimental: 7-9 week old wild type mice of either gender were sacrificed and the tail skin tissue harvested then cultured 4 days on a porous membrane chamber insert with the epidermis exposed to air and dermis side in contact with media drawn through the porous membrane. Various concentrations and combinations of Mesalamine (2 mM and 5 mM) and Acitretin (1 μM) were added to the media or media alone used as a control. Media was refreshed after 48 hrs. Skins were then harvested on the 4 th day and fixed in 4% PFA overnight then stored in 80% Ethanol until processed and embedded in paraffin wax. 8 micron sections were then cut and stained with Haematoxylin and Eosin and analysed. Images were taken from at least 10 scales from 3 mice per treatment condition and the % orthokeratosis measured as defined in the figure legend for FIG. 13.

[2] = test system: E16.5 embryonic back skin (Abca12 Lx12/Lx12 and Lx12/+); experiment: Harlequin Ichthyosis ex vivo embryo whole mount skin assay, cornified envelope thickening; format: cell-based, mouse; details: 10 mM Mesalamine or 1 uM Acitretin, 4 days ex vivo
Experimental: Embryonic back skin was collected at E16.5 from across 3 litters generated by Abca12 Lx12/+ cross Abca12 Lx12/+ matings to generate Harlequin Ichthyosis embryos Abca12 Lx12/Lx12 and control siblings Abca12 Lx12/+ and Abca12+/+. The embryonic skin was then cultured 4 days on a porous membrane chamber insert with the epidermis exposed to air and dermis side in contact with media drawn through the porous membrane to permit maturation and adaptation to air. 10 mM Mesalamine or 1 uM Acitretin was supplied in the culture media and media refreshed at 48 hrs. Vehicle samples were left without drug treatment. Skins were then harvested on the 4th day and fixed in 4% PFA for 3-4 hrs then stored in 80% Ethanol until processed and embedded in paraffin wax. 8 micron sections were then cut and stained with Haematoxylin and Eosin and analysed. The percentage of skin thickness accounted for by the cornified envelope (cornified layer) was measured and results normalised as a fold change over the vehicle-treated control siblings in each assay. Wild type siblings were under represented in these litters so phenotypically normal heterozygote siblings were used as controls.

[3] = test system: E16.5 embryonic mouse dorsal skin (Lx12/Lx12 HI mutant, Lx12/+, +/+); experiment: Ex vivo chamber assay of E16.5 embryonic mouse dorsal skin during Harlequin Ichthyosis (HI) disease acquisition, H&E and immunofluorescent staining; format: cell-based
Text: The mouse strain ‘Abca12^tm1Lex’ NIH-0129 was obtained from Lexicon genetics and are referred to herein as Abca12Lx12/Lx12, or simply Lx12/Lx12, mice. These mice have a puromycin selection cassette-mediated exon 8 disruption and recapitulate the features of HI akin to other Abca12 mutant strains. All animal procedures complied with standards set under Australian guidelines for animal welfare and experiments were subject to Monash University animal welfare ethics review panels.
Anti-cleaved caspase 3 (#9664P) 1:100 (IHC) Cell Signalling Technologies, USA. Anti-filaggrin (PRB-417P) 1: 1000 (IHC) Covance, USA. Anti-involucrin (PRB-140C) 1: 1000 (IHC) Covance, USA. Antikeratin 10 (PRB-159P) 1: 500 (IHC) Covance, USA. Antikeratin 10 (sc-23877) 1: 100 (IHC) Santa Cruz Biotechnology USA. Anti-keratin 14 (LL002) (ab7800) 1: 250-1000 (IHC) Abcam, UK. Anti-loricrin (PRB-145P) 1: 1000 (IHC) Covance, USA. Molecular Probes AlexaFluor A488 and 555 secondary antibodies raised in Donkey, against rabbit or mouse, were used at 1: 600, from Life Technologies. Nuclei stains used included DAPI (Sigma-Aldrich) 1: 1000. DAB staining was performed by the Monash Histology Platform using Leica autostainers and Dako products.
The ability of mesalamine to rescue the impaired differentiation in an HI mouse model, which represents an extremely severe inflammatory skin disease, was tested. Embryonic back skins at E16.5 were harvested from a litter containing wild type, heterozygous and HI embryos. The skin was divided into two pieces and each cultured for 4 days in a standard ex vivo chamber assay, where the skin rests dermis-side down on a chamber insert membrane and draws cell culture media up from the below well, forming an air face on the epidermis side and liquid face for the dermal side, similar to the normal skin environment. Mesalamine was added in the media of one of each pair of skins at 10 mM (the active concentration determined to have most impact in the gut for intestinal diseases).

[4] = test system: E18.5 embryonic mouse dorsal skin (Lx12/Lx12 HI mutant, Lx12/+, +/+); experiment: Ex vivo chamber assay of E18.5 embryonic mouse dorsal skin after HI disease acquisition, H&E; format: cell-based; details: 4 days ex vivo
Experimental: Representative Haematoxylin and Eosin staining of embryonic mouse dorsal skin from two E18.5 litters, cultured ex vivo for 4 days on chamber inserts, with 1 or 10 mM mesalamine in standard culture media or vehicle alone is shown in FIG. 9. +/+ presents wild type skin. Lx12/Lx12 represents the HI mutant skin and Lx12/+ represents seemingly normal skin carrying the recessive HI mutant allele. Note once again the abnormality observed in the spinous layer, loss of the granular layer and proportional thickening of the stratum corneum in Lx12/Lx12 (HI) vehicle treated skins. Lx12/+ skins also appeared slightly abnormal relative to +/+ vehicle treated skins. […] Images are repeated in grayscale.

GRHL3 −/− epidermis = experiment: Ex vivo whole mount assay of GRHL3 -/- skin (proxy model of Lamellar Ichthyosis), cornified layer thickness; format: cell-based, mouse; details: E16.5, 10 mM, 4 days ex vivo
Experimental: Embryonic back skin was collected at E16.5 from litters generated by GRHL3+/− cross Abca12 GRHL3+/− matings to generate Ichthyosis embryos GRHL3 −/− and control siblings GRHL3+/− and GRHL3+/+. The embryonic skin was then cultured 4 days on a porous membrane chamber insert with the epidermis exposed to air and dermis side in contact with media drawn through the porous membrane to permit maturation and adaptation to air. Skins were then harvested and fixed in 4% PFA for 3-4 hrs then stored in 80% Ethanol until processed and embedded in paraffin wax. 8 micron sections were then cut and stained with Haematoxylin and Eosin and analysed.

[5] = test system: E16.5 embryonic mouse dorsal skin (Lx12/Lx12 HI mutant, Lx12/+, +/+); experiment: Ex vivo chamber assay of E16.5 embryonic mouse dorsal skin during Harlequin Ichthyosis (HI) disease acquisition, H&E and immunofluorescent staining; format: cell-based; details: second E16.5 litter, 1 or 10 mM, 4 days ex vivo
[6] = Harlequin Ichthyosis (Lx12/Lx12) skins
[7] = control heterozygous Lx12/+ skins
[8] = Lx12/+ skin, 10 mM, 4 days ex vivo
[9] = Lx12/Lx12 skin, 10 mM, 4 days ex vivo

| Structure (SMILES) | Orthokeratosis ([1]; 1 μM Acitretin) | Cornified layer proportion of skin thickness [2, 6] | Cornified layer proportion of skin thickness [2, 7] | Skin differentiation defects in HI ([3]; 10 mM in media, pair matched skins across genotypes) | Epidermis morphology (Haematoxylin and Eosin) ([3]; +/+ wild type skin, 10 mM, 4 days ex vivo) | Apoptosis (cleaved-Caspase-3 positive cells) ([3]; Lx12/+ and Lx12/Lx12 skin, 10 mM, 4 days ex vivo) | Granular layer Filaggrin (FLG) [3, 8] | Keratin 10 (K10) positive keratinocytes [3, 8] | Epidermis morphology (Haematoxylin and Eosin) ([3]; Lx12/Lx12 (HI) skin, 10 mM, 4 days ex vivo) | Granular layer Filaggrin (FLG) [3, 9] | Involucrin (INV) expression [3, 9] | Keratin 10 (K10) positive keratinocytes [3, 9] | Loricrin (LOR) expression [3, 9] | Epidermis morphology (Haematoxylin and Eosin) ([4]; Lx12/Lx12 (HI) skin, E18.5, 1 mM) | Epidermis morphology (Haematoxylin and Eosin) ([4]; all genotypes, E18.5, 10 mM) | Cornified layer thickening (GRHL3 −/− epidermis) | Orthokeratosis compared with 1 μM Acitretin ([1]; 2 mM Mesalamine) | Orthokeratosis ([1]; 2 mM and 5 mM Mesalamine in the culture medium) | Epidermis morphology (Haematoxylin and Eosin) [5] |
| --- | --- | --- | --- | --- | --- | --- | --- | --- | --- | --- | --- | --- | --- | --- | --- | --- | --- | --- | --- |
| COc1cc(C)c(/C=C/C(C)=C/C=C/C(C)=C/C(=O)O)c(C)c1C [Acitretin] | promoted orthokeratosis | no significant effect | no significant effect |  |  |  |  |  |  |  |  |  |  |  |  |  |  |  |  |
| Nc1ccc(O)c(C(=O)O)c1 [Mesalamine, 5-aminosalicylic acid] |  | reduced the cornified layer proportion to vehicle control levels | reduced the thickness | significantly rescued | did not however appear to greatly effect | apoptosis is reduced | restored | revert to normal levels | acquires a more-normal appearance | partially restored | a more organised, and delayed (granular layer) expression | some modest improvement | a more normal, predominantly granular layer expression | acquires a more-normal appearance | reducing the keratinocytes accumulating in the spinous layers | reduced hyper-thickening of the cornified layer; also recorded: loss of thickening | performing similarly to 1 μM Acitretin | dose dependent increase in orthokeratosis | acquires a more-normal appearance |
